Laboratory results from the supplement of paper PMC11451515.

Key:
Conditions in all cases: 48 h
NOMO1 [1] = experiment: cell viability relative to DMSO control; higher = less cytotoxic
Procedure, shortened: (§1)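 Library compounds in DMSO were pin-dosed in an 11-point threefold series (47 μM to 0.79 nM) onto leukemia cells in 1536-well plates (5 μl). Plates held 500 cells/well of NOMO1 or SEM or 1000 cells/well of P12-Ichikawa, each adapted for at least four passages in each medium. Luminescence was read with CellTiter-Glo One after 48 h at 37°C. Viability means the per-plate percentage relative to DMSO wells, using cell-free wells as background.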

SEM cells [2] = experiment: as above
Procedure, shortened: as §1

P12-Ichikawa [3] = experiment: as above
Procedure, shortened: as §1

NOMO1 [4] = experiment: AUC of viability dose-response curve (% viability x log10 dose units); higher = less sensitive
Procedure, shortened: (§2)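 Over 48 h at 37°C, leukemia cells in 1536-well plates (500 or 1000 cells/well), adapted to each medium, received library compounds in DMSO at 11 threefold doses from 47 μM to 0.79 nM. CellTiter-Glo One luminescence, normalised per plate to DMSO and cell-free wells, was fitted by a four-parameter log-logistic function of log10 dose. The area under the curve was then integrated by trapezoidal rule, after scaling curves above full viability and removing those that failed quality control.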

SEM cells [5] = experiment: as above
Procedure, shortened: as §2

P12-Ichikawa [6] = experiment: as above
Procedure, shortened: as §2

CCOC\1=C(/C(=O)NC2=CC=C(OC3=C(Cl)C(=NC=C3)N)C(=C2)F)C(=O)N(\C=C1)C4=CC=C(F)C=C4
cell viability [%]
Conditions	NOMO1 [1]	P12-Ichikawa [3]	SEM cells [2]
HPLM + 10% dialyzed FBS, 0.000781 µM	86.9	107	95.5
HPLM + 10% dialyzed FBS, 0.00234 µM	96.1	110	97.7
HPLM + 10% dialyzed FBS, 0.00702 µM	99.3	102	98.4
HPLM + 10% dialyzed FBS, 0.0211 µM	96.1	115	94.7
HPLM + 10% dialyzed FBS, 0.0632 µM	102	104	91.1
HPLM + 10% dialyzed FBS, 0.19 µM	106	101	76.8
HPLM + 10% dialyzed FBS, 0.569 µM	91.6	94.7	63.3
HPLM + 10% dialyzed FBS, 1.71 µM	75.6	91.3	50.6
HPLM + 10% dialyzed FBS, 5.12 µM	75.1	93.8	32.8
HPLM + 10% dialyzed FBS, 15.4 µM	70.9	81.2	28.9
HPLM + 10% dialyzed FBS, 46.1 µM	39.1	27.4	15
RPMI 5 mM glucose + 10% FBS, 0.000781 µM	99.8	99.2	122
RPMI 5 mM glucose + 10% FBS, 0.00234 µM	102	104	118
RPMI 5 mM glucose + 10% FBS, 0.00702 µM	104	111	105
RPMI 5 mM glucose + 10% FBS, 0.0211 µM	90.4	98.5	95.9
RPMI 5 mM glucose + 10% FBS, 0.0632 µM	100	102	98.4
RPMI 5 mM glucose + 10% FBS, 0.19 µM	96.6	102	91.1
RPMI 5 mM glucose + 10% FBS, 0.569 µM	93.5	96.1	75.5
RPMI 5 mM glucose + 10% FBS, 1.71 µM	88.7	95.2	53.3
RPMI 5 mM glucose + 10% FBS, 5.12 µM	90	97.7	39.7
RPMI 5 mM glucose + 10% FBS, 15.4 µM	92	80.1	27.5
RPMI 5 mM glucose + 10% FBS, 46.1 µM	51.9	30.9	6.35
RPMI 5 mM glucose + 10% dialyzed FBS, 0.000781 µM	111	106	92.1
RPMI 5 mM glucose + 10% dialyzed FBS, 0.00234 µM	96.1	101	83.9
RPMI 5 mM glucose + 10% dialyzed FBS, 0.00702 µM	92.2	104	96
RPMI 5 mM glucose + 10% dialyzed FBS, 0.0211 µM	94.7	104	90.1
RPMI 5 mM glucose + 10% dialyzed FBS, 0.0632 µM	95.3	102	82.4
RPMI 5 mM glucose + 10% dialyzed FBS, 0.19 µM	96.8	91	76.4
RPMI 5 mM glucose + 10% dialyzed FBS, 0.569 µM	89.1	99.7	57
RPMI 5 mM glucose + 10% dialyzed FBS, 1.71 µM	95.8	81.9	40
RPMI 5 mM glucose + 10% dialyzed FBS, 5.12 µM	100	91.8	33.9
RPMI 5 mM glucose + 10% dialyzed FBS, 15.4 µM	74.7	68.5	22.9
RPMI 5 mM glucose + 10% dialyzed FBS, 46.1 µM	52.7	28.1	6.07

AUC of viability dose-response curve
Conditions	NOMO1 [4]	P12-Ichikawa [6]	SEM cells [5]
HPLM + 10% dialyzed FBS	415	444	328
RPMI 5 mM glucose + 10% FBS	446	447	309
RPMI 5 mM glucose + 10% dialyzed FBS	440	431	300

COc1ccc2c(c1)CC[C@@H](CN(C)CC(=O)O)[C@H]2c1ccccc1
cell viability [%]
Conditions	NOMO1 [1]	P12-Ichikawa [3]	SEM cells [2]
RPMI 5 mM glucose + 10% FBS, 0.000781 µM	–	–	120
RPMI 5 mM glucose + 10% FBS, 0.00234 µM	–	–	122
RPMI 5 mM glucose + 10% FBS, 0.00702 µM	–	–	126
RPMI 5 mM glucose + 10% FBS, 0.0211 µM	–	–	109
RPMI 5 mM glucose + 10% FBS, 0.0632 µM	–	–	124
RPMI 5 mM glucose + 10% FBS, 0.19 µM	–	–	104
RPMI 5 mM glucose + 10% FBS, 0.569 µM	–	–	110
RPMI 5 mM glucose + 10% FBS, 1.71 µM	–	–	79.8
RPMI 5 mM glucose + 10% FBS, 5.12 µM	–	–	31
RPMI 5 mM glucose + 10% FBS, 15.4 µM	–	–	20.9
RPMI 5 mM glucose + 10% FBS, 46.1 µM	–	–	16
RPMI 5 mM glucose + 10% dialyzed FBS, 0.000781 µM	120	116	94.9
RPMI 5 mM glucose + 10% dialyzed FBS, 0.00234 µM	125	122	100
RPMI 5 mM glucose + 10% dialyzed FBS, 0.00702 µM	125	129	101
RPMI 5 mM glucose + 10% dialyzed FBS, 0.0211 µM	101	119	110
RPMI 5 mM glucose + 10% dialyzed FBS, 0.0632 µM	127	119	109
RPMI 5 mM glucose + 10% dialyzed FBS, 0.19 µM	130	116	115
RPMI 5 mM glucose + 10% dialyzed FBS, 0.569 µM	125	119	115
RPMI 5 mM glucose + 10% dialyzed FBS, 1.71 µM	123	105	91.3
RPMI 5 mM glucose + 10% dialyzed FBS, 5.12 µM	85.2	54.9	41.5
RPMI 5 mM glucose + 10% dialyzed FBS, 15.4 µM	29.8	28.8	24.8
RPMI 5 mM glucose + 10% dialyzed FBS, 46.1 µM	36.6	29.1	19.9

AUC of viability dose-response curve
Conditions	NOMO1 [4]	P12-Ichikawa [6]	SEM cells [5]
HPLM + 10% dialyzed FBS	409	368	373
RPMI 5 mM glucose + 10% FBS	407	369	362
RPMI 5 mM glucose + 10% dialyzed FBS	411	390	385

CC1(C)NC(=O)N(c2ccc([N+](=O)[O-])c(C(F)(F)F)c2)C1=O
cell viability [%]
Conditions	NOMO1 [1]	P12-Ichikawa [3]	SEM cells [2]
HPLM + 10% dialyzed FBS, 0.000781 µM	93.3	96.1	88.7
HPLM + 10% dialyzed FBS, 0.00234 µM	91.4	87.3	89.7
HPLM + 10% dialyzed FBS, 0.00702 µM	90	90.1	82.5
HPLM + 10% dialyzed FBS, 0.0211 µM	107	89.5	90.8
HPLM + 10% dialyzed FBS, 0.0632 µM	96.2	101	96.9
HPLM + 10% dialyzed FBS, 0.19 µM	96.9	90.9	44.9
HPLM + 10% dialyzed FBS, 0.569 µM	82	89.6	94
HPLM + 10% dialyzed FBS, 1.71 µM	92.8	87.8	90.8
HPLM + 10% dialyzed FBS, 5.12 µM	90	77.1	81
HPLM + 10% dialyzed FBS, 15.4 µM	90.1	85.2	87.4
HPLM + 10% dialyzed FBS, 46.1 µM	82.3	80	84.6
RPMI 5 mM glucose + 10% FBS, 0.000781 µM	92.9	88.4	98.7
RPMI 5 mM glucose + 10% FBS, 0.00234 µM	95.5	82.8	79.5
RPMI 5 mM glucose + 10% FBS, 0.00702 µM	90.9	82.5	92.9
RPMI 5 mM glucose + 10% FBS, 0.0211 µM	94.6	95.2	96.7
RPMI 5 mM glucose + 10% FBS, 0.0632 µM	92.8	96.2	104
RPMI 5 mM glucose + 10% FBS, 0.19 µM	88.7	92	86
RPMI 5 mM glucose + 10% FBS, 0.569 µM	90.1	90.1	99.6
RPMI 5 mM glucose + 10% FBS, 1.71 µM	97.8	74.9	94.9
RPMI 5 mM glucose + 10% FBS, 5.12 µM	86.3	82.8	110
RPMI 5 mM glucose + 10% FBS, 15.4 µM	82.2	82.9	87.7
RPMI 5 mM glucose + 10% FBS, 46.1 µM	76.4	75.8	93.9
RPMI 5 mM glucose + 10% dialyzed FBS, 0.000781 µM	80.9	77.6	99.4
RPMI 5 mM glucose + 10% dialyzed FBS, 0.00234 µM	87.7	81	91
RPMI 5 mM glucose + 10% dialyzed FBS, 0.00702 µM	90.8	75.6	101
RPMI 5 mM glucose + 10% dialyzed FBS, 0.0211 µM	86.6	80	109
RPMI 5 mM glucose + 10% dialyzed FBS, 0.0632 µM	86.2	83.4	96.3
RPMI 5 mM glucose + 10% dialyzed FBS, 0.19 µM	82.2	85.7	74.5
RPMI 5 mM glucose + 10% dialyzed FBS, 0.569 µM	89.3	78.4	104
RPMI 5 mM glucose + 10% dialyzed FBS, 1.71 µM	85.9	77.2	106
RPMI 5 mM glucose + 10% dialyzed FBS, 5.12 µM	86.5	70.7	106
RPMI 5 mM glucose + 10% dialyzed FBS, 15.4 µM	77.5	75	78.9
RPMI 5 mM glucose + 10% dialyzed FBS, 46.1 µM	82.1	67.8	90

AUC of viability dose-response curve
Conditions	NOMO1 [4]	P12-Ichikawa [6]	SEM cells [5]
HPLM + 10% dialyzed FBS	439	424	404
RPMI 5 mM glucose + 10% FBS	431	410	454
RPMI 5 mM glucose + 10% dialyzed FBS	407	371	461
